Source: DBAASP
In brackets after ≈: the same amount, converted by molar mass. Values belong to the compound of their own block, whether it stands above or below them.

Tests used:
Test in all cases: ≥ marks a high value that may be exact or a test limit, other limits are often not marked, values filed in µg/mL are converted to µM
Bacillus cereus = tested on: Bacillus cereus
[1] = tested on: Candida albicans ATCC 2002
[2] = tested on: Escherichia coli ATCC 25922
Pseudomonas aeruginosa = tested on: Pseudomonas aeruginosa
Shigella dysenteriae = tested on: Shigella dysenteriae
[3] = tested on: Staphylococcus aureus ATCC 2592
[4] = tested on: Bacillus subtilis ATCC 6051
[5] = tested on: Pseudomonas aeruginosa ATCC 27853
[6] = tested on: Staphylococcus aureus ATCC 25923
Bacillus subtilis 168 = tested on: Bacillus subtilis 168
Escherichia coli B = tested on: Escherichia coli B
Staphylococcus aureus = tested on: Staphylococcus aureus
Bacillus subtilis = tested on: Bacillus subtilis
Escherichia coli = tested on: Escherichia coli
Klebsiella pneumoniae = tested on: Klebsiella pneumoniae
Micrococcus luteus = tested on: Micrococcus luteus
Proteus mirabilis = tested on: Proteus mirabilis
Salmonella typhimurium = tested on: Salmonella typhimurium
[7] = tested on: Staphylococcus epidermidis
Staphylococcus aureus MR = tested on: Staphylococcus aureus MR
[8] = tested on: Micrococcus luteus ATCC 9341

SMILES: CC(C)C[C@H](NC(=O)[C@H](C)NC(=O)CNC(=O)[C@H](CC(C)C)NC(=O)[C@@H](N)Cc1ccccc1)C(=O)N[C@@H](Cc1ccccc1)C(=O)N[C@@H](CCCCN)C(=O)N[C@H](C(=O)N[C@@H](C)C(=O)N[C@@H](CO)C(=O)N[C@@H](Cc1c[nH]c2ccccc12)C(=O)O)C(C)C [FLGALFKVASW]
MIC (Bacillus subtilis): ≥ 161 µM | MIC (Escherichia coli): > 161 µM | MIC (Klebsiella pneumoniae): > 161 µM | MIC (Micrococcus luteus): ≥ 161 µM | MIC (Proteus mirabilis): ≥ 161 µM | MIC (Pseudomonas aeruginosa): > 161 µM | MIC (Salmonella typhimurium): ≥ 161 µM | MIC (Shigella dysenteriae): ≥ 161 µM | MIC (Staphylococcus aureus): > 161 µM | MIC [7]: ≥ 161 µM

SMILES: CC(C)C[C@H](NC(=O)[C@H](C)NC(=O)[C@H](Cc1c[nH]c2ccccc12)NC(=O)[C@H](CC(C)C)NC(=O)[C@@H](N)Cc1ccccc1)C(=O)N[C@@H](Cc1ccccc1)C(=O)N[C@@H](CCCCN)C(=O)N[C@H](C(=O)N[C@@H](C)C(=O)N[C@@H](CO)C(=O)N[C@@H](CCCCN)C(=O)O)C(C)C [FLWALFKVASK]
MIC (Bacillus subtilis): 9.54 µM (≈ 12.5 µg/mL) | MIC (Escherichia coli): 76.4 µM (≈ 100 µg/mL) | MIC (Klebsiella pneumoniae): 76.4 µM (≈ 100 µg/mL) | MIC (Micrococcus luteus): ≥ 38.2 µM | MIC (Proteus mirabilis): ≥ 153 µM | MIC (Pseudomonas aeruginosa): > 153 µM | MIC (Salmonella typhimurium): ≥ 153 µM | MIC (Shigella dysenteriae): ≥ 153 µM | MIC (Staphylococcus aureus): 9.54 µM (≈ 12.5 µg/mL) | MIC [7]: 19.1 µM (≈ 25 µg/mL)

SMILES: CC[C@H](C)[C@H](NC(=O)[C@H](C)NC(=O)[C@H](CC(C)C)NC(=O)[C@H](CC(C)C)NC(=O)[C@H](CC(C)C)NC(=O)[C@H](C)N)C(=O)N[C@@H](CCCN=C(N)N)C(=O)N[C@@H](CCCCN)C(=O)N[C@@H](CCCN=C(N)N)C(N)=O [ALLLAIRKR]
MIC (Escherichia coli): 5.7 µM (≈ 5.99 µg/mL) | MIC (Pseudomonas aeruginosa): 3.8 µM (≈ 4 µg/mL) | MIC (Staphylococcus aureus MR): ≥ 38 µM | MIC (Staphylococcus aureus): 3.8 µM (≈ 4 µg/mL)

SMILES: CC[C@H](C)[C@H](NC(=O)[C@H](CC(C)C)NC(=O)[C@H](CCCCN)NC(=O)CNC(=O)[C@H](CC(C)C)NC(=O)[C@@H](NC(=O)[C@H](CCCCN)NC(=O)[C@H](CO)NC(=O)[C@H](Cc1c[nH]c2ccccc12)NC(=O)[C@H](CCCCN)NC(=O)CN)[C@@H](C)CC)C(=O)N[C@@H](CCCN=C(N)N)C(N)=O [GKWSKILGKLIR]
MIC (Bacillus subtilis 168): 1.7 µM (≈ 2.38 µg/mL) | MIC (Escherichia coli B): 2.3 µM (≈ 3.21 µg/mL) | MIC (Pseudomonas aeruginosa): 28.3 µM (≈ 39.6 µg/mL) | MIC (Staphylococcus aureus): 21.7 µM (≈ 30.3 µg/mL)

SMILES: CC[C@H](C)[C@@H]1NC(=O)[C@H](CCCCN)NC(=O)[C@@H](NC(=O)[C@H](Cc2ccccc2)NC(=O)[C@H](CC(C)C)NC(=O)[C@H](CCCCN)NC(=O)[C@@H]2CCCN2C(=O)[C@H](CC(C)C)NC(=O)[C@H](Cc2ccccc2)NC(=O)[C@H](CC(N)=O)NC(=O)[C@H](C)NC(=O)[C@H](C)NC(=O)[C@H](CC(C)C)NC(=O)[C@H](CO)NC(=O)[C@@H](NC(=O)[C@H](C)NC(=O)[C@H](CC(C)C)NC(=O)[C@@H]2CCCN2C(=O)[C@H](CC(C)C)NC(=O)[C@@H](N)Cc2ccccc2)C(C)C)CSSC[C@@H](C(=O)O)NC(=O)[C@H](CCCCN)NC(=O)[C@H](CCCCN)NC(=O)[C@H]([C@@H](C)O)NC1=O [FLPLAVSLAANFLPKLFCKITKKC]
MIC [1]: 2.81 µM (≈ 7.49 µg/mL) | MIC [2]: 2.44 µM (≈ 6.5 µg/mL) | MIC (Shigella dysenteriae): 0.825 µM (≈ 2.2 µg/mL) | MIC [3]: 2.06 µM (≈ 5.5 µg/mL)

SMILES: CC(C)C[C@H](NC(=O)[C@H](C)N)C(=O)N1CCC[C@H]1C(=O)N[C@@H](Cc1c[nH]c2ccccc12)C(=O)N[C@@H](CCCCN)C(=O)N[C@@H](Cc1c[nH]c2ccccc12)C(=O)N1CCC[C@H]1C(=O)N[C@@H](Cc1c[nH]c2ccccc12)C(=O)N[C@@H](Cc1c[nH]c2ccccc12)C(=O)N1CCC[C@H]1C(=O)N[C@@H](Cc1c[nH]c2ccccc12)C(=O)N[C@@H](CCCN=C(N)N)C(=O)N[C@@H](CCCN=C(N)N)C(N)=O [ALPWKWPWWPWRR]
MIC [8]: 0.4 µM (≈ 0.746 µg/mL)

Other lines, results leading:

MIC (Bacillus cereus): 21.3 µM (≈ 49.9 µg/mL) | MIC [1]: ≥ 42.6 µM | MIC [2]: 10.6 µM (≈ 25 µg/mL) | MIC (Pseudomonas aeruginosa): 10.6 µM (≈ 25 µg/mL) | MIC (Shigella dysenteriae): 5.32 µM (≈ 12.5 µg/mL) | MIC [3]: 5.32 µM (≈ 12.5 µg/mL)
SMILES: CSCC[C@H](NC(=O)[C@H](CO)NC(=O)[C@H](Cc1ccc(O)cc1)NC(=O)[C@H](C)NC(=O)[C@@H](N)CCCCN)C(=O)N1CCC[C@H]1C(=O)N[C@@H](CCCN=C(N)N)C(=O)N[C@H]1CSSC[C@@H](C(=O)N[C@@H](Cc2c[nH]c3ccccc23)C(=O)N[C@@H](CC(C)C)C(N)=O)NC(=O)[C@H](CC(C)C)NC(=O)[C@H](C(C)C)NC(=O)[C@H](C)NC(=O)[C@H](CCCN=C(N)N)NC(=O)[C@H](Cc2ccccc2)NC(=O)[C@H](CC(C)C)NC(=O)[C@H](Cc2ccc(O)cc2)NC(=O)[C@H](CCCCN)NC1=O [KAYSMPRCKYLFRAVLCWL]

MIC [4]: ≥ 40 µM | MIC [2]: 40 µM (≈ 64 µg/mL) | MIC [5]: 20 µM (≈ 32 µg/mL) | MIC [6]: 160 µM (≈ 256 µg/mL)
SMILES: CC[C@H](C)[C@H](NC(=O)[C@H](CC(N)=O)NC(=O)[C@H](Cc1ccccc1)NC(=O)[C@H](CC(C)C)NC(=O)CN)C(=O)N[C@H](C(=O)N[C@@H](CCCCN)C(=O)N[C@@H](CCCCN)C(=O)N[C@H](C(=O)N[C@H](C(=O)NCC(=O)N[C@@H](CCCCN)C(=O)N[C@@H](CC(C)C)C(=O)N[C@@H](CCCN=C(N)N)C(=O)O)[C@@H](C)CC)[C@@H](C)O)[C@@H](C)CC [GLFNIIKKTIGKLR]

MIC (Bacillus subtilis 168): 0.6 µM (≈ 1.04 µg/mL) | MIC (Escherichia coli B): 0.7 µM (≈ 1.22 µg/mL) | MIC (Pseudomonas aeruginosa): 26.9 µM (≈ 46.7 µg/mL) | MIC (Staphylococcus aureus): 7.2 µM (≈ 12.5 µg/mL)
SMILES: CC[C@H](C)[C@H](NC(=O)[C@H](CCCCN)NC(=O)[C@H](C)NC(=O)[C@H](CC(C)C)NC(=O)[C@@H](NC(=O)[C@H](CCCCN)NC(=O)[C@H](CCCCN)NC(=O)[C@H](Cc1c[nH]c2ccccc12)NC(=O)[C@H](CC(N)=O)NC(=O)[C@@H](N)C(C)C)C(C)C)C(=O)N[C@H](C(=O)N[C@@H](CCCCN)C(=O)N[C@H](C(=O)N[C@@H](C)C(=O)N[C@@H](CCCCN)C(N)=O)C(C)C)[C@@H](C)CC [VNWKKVLAKIIKVAK]

MIC (Bacillus subtilis): ≥ 41 µM | MIC [1]: 20.5 µM (≈ 60 µg/mL) | MIC [2]: 41 µM (≈ 120 µg/mL) | MIC [3]: 10.3 µM (≈ 30 µg/mL)
SMILES: CC[C@H](C)[C@H](NC(=O)[C@H](CCC(N)=O)NC(=O)[C@H](CCCCN)NC(=O)CNC(=O)[C@H](CC(C)C)NC(=O)[C@H](CCC(N)=O)NC(=O)[C@@H]1CCCN1C(=O)[C@H](CC(C)C)NC(=O)[C@H](CCCCN)NC(=O)[C@H](C)NC(=O)[C@H](CCC(=O)O)NC(=O)[C@H](CCCCN)NC(=O)[C@@H](NC(=O)[C@H](CCSC)NC(=O)[C@@H](NC(=O)[C@@H](NC(=O)[C@@H](NC(=O)[C@@H](N)CO)[C@@H](C)CC)[C@@H](C)CC)[C@@H](C)O)[C@@H](C)O)C(=O)N[C@@H](C)C(=O)N[C@H]1CSSC[C@@H](C(=O)O)NC(=O)[C@H]([C@@H](C)O)NC(=O)[C@H](CC(N)=O)NC(=O)[C@H](Cc2ccc(O)cc2)NC(=O)[C@H](CC(C)C)NC(=O)[C@H](CCCN=C(N)N)NC1=O [SIITMTKEAKLPQLGKQIACRLYNTC]

MIC (Bacillus subtilis 168): 0.7 µM (≈ 1.24 µg/mL) | MIC (Escherichia coli B): 2.5 µM (≈ 4.44 µg/mL) | MIC (Pseudomonas aeruginosa): 100 µM (≈ 178 µg/mL) | MIC (Staphylococcus aureus): 80 µM (≈ 142 µg/mL)
SMILES: CC[C@H](C)[C@H](NC(=O)[C@H](CCCCN)NC(=O)[C@H](CCCCN)NC(=O)[C@H](Cc1c[nH]c2ccccc12)NC(=O)[C@H](CC(N)=O)NC(=O)[C@@H](N)C(C)C)C(=O)N[C@@H](CC(C)C)C(=O)N1CCC[C@H]1C(=O)N[C@@H](CCCCN)C(=O)N[C@H](C(=O)N[C@H](C(=O)N[C@@H](CCCCN)C(=O)N[C@H](C(=O)N[C@@H](C)C(=O)N[C@@H](CCCCN)C(N)=O)C(C)C)[C@@H](C)CC)[C@@H](C)CC [VNWKKILPKIIKVAK]

MIC [2]: 16 µM (≈ 29.6 µg/mL) | MIC [8]: 0.4 µM (≈ 0.74 µg/mL)
SMILES: CC[C@H](C)[C@H](N)C(=O)N[C@@H](CC(C)C)C(=O)N1CCC[C@H]1C(=O)N[C@@H](Cc1c[nH]c2ccccc12)C(=O)N[C@@H](CCCCN)C(=O)N[C@@H](Cc1c[nH]c2ccccc12)C(=O)N1CCC[C@H]1C(=O)N[C@@H](Cc1c[nH]c2ccccc12)C(=O)N[C@@H](Cc1c[nH]c2ccccc12)C(=O)N1CCC[C@H]1C(=O)N[C@@H](Cc1c[nH]c2ccccc12)C(=O)N[C@@H](CCCCN)C(=O)N[C@@H](CCCCN)C(N)=O [ILPWKWPWWPWKK]
